From patent US7875647B2, “Heteroaryl-pyrazole derivatives as cannabinoid CB1 receptor antagonists” (Green Cross Corporation, priority 2006, dated 2011)

The compounds below were run against T1, Cannabinoid-1 receptor (CB1R) (Rattus norvegicus, UniProt P20272) (assay: Cannabinoid-1 receptor (CB1R) binding affinity assay ([3H]CP-55940, rat CB-1 receptor binding protocol)). Details: IC50(nM), brain tissue of SD rats, [3H]CP-55940, 30° C. 60 min.
T1 construct: The tissue obtained from the brain of SD rats was homogenized; from tissue; host or cells: brain of SD rats (membrane pellet of the homogenate)
T1 sequence (P20272 whole entry): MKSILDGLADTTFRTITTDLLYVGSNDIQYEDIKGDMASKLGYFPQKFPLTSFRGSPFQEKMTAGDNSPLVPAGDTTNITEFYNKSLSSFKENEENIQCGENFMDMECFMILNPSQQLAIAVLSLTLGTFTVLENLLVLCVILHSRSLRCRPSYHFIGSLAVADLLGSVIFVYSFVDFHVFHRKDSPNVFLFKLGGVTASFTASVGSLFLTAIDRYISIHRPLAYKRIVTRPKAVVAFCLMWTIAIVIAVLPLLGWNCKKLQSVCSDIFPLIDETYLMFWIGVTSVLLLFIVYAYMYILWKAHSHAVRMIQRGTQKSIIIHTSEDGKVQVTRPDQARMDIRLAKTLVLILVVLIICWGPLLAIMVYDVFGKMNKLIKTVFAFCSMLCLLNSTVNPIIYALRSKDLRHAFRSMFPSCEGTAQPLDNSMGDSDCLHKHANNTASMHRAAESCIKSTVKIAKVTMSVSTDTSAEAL

Compound	IC50 [nM]
Cc1c(-c2ncc(C(C)(C)C)o2)nn(-c2ccc(Cl)cc2Cl)c1-c1ccc(Cl)cc1 [Example 644, 5-tert-butyl-2-(5-(4-chlorophenyl)-1-(2,4-dichlorophenyl)-4-methyl-1H-pyrazol-3-yl)oxazole]	14.2

Same assay, conditions: brain tissue of SD rats, [3H]CP-55940, 30° C. 60 min; read-out: IC50

IC50 [nM]	Compound
8.53	Cc1c(-c2nnc(C3(C(F)(F)F)CC3)o2)nn(-c2ccc(Cl)cc2Cl)c1-c1ccc(Cl)cc1 [Example 132, 2-(5-(4-chlorophenyl)-1-(2,4-dichlorophenyl)-4-methyl-1H-pyrazol-3-yl)-5-(1-(trifluoromethyl)cyclopropyl)-1,3,4-oxadiazole]
19.8	CCc1c(-c2nnc(C3(CC)CC3)s2)nn(-c2ccc(Cl)cc2Cl)c1-c1ccc(Cl)cc1 [Example 489, 2-(5-(4-chlorophenyl)-1-(2,4-dichlorophenyl)-4-ethyl-1H-pyrazol-3-yl)-5-(1-ethylcyclopropyl)-1,3,4-thiadiazole]
95.3	Cc1c(-c2nnc(C3(C#N)CC3)o2)nn(-c2ccc(Cl)cc2Cl)c1-c1ccc(Cl)cc1 [Example 267, 1-(5-(5-(4-chlorophenyl)-1-(2,4-dichlorophenyl)-4-methyl-1H-pyrazol-3-yl)-1,3,4-oxadiazol-2-yl)cyclopropanecarbonitrile]
851	Cc1c(-c2nc(C(C)C)n(C(C)C)n2)nn(-c2ccc(Cl)cc2Cl)c1-c1ccc(Cl)cc1 [Example 636, 3-(5-(4-chlorophenyl)-1-(2,4-dichlorophenyl)-4-methyl-1H-pyrazol-3-yl)-1,5-diisopropyl-1H-1,2,4-triazole]
22.5	CC(C)c1c(-c2nnc(C3(c4ccc(Cl)cc4)CCC3)o2)nn(-c2ccc(Cl)cc2Cl)c1-c1ccc(Cl)cc1 [Example 182, 2-(5-(4-chlorophenyl)-1-(2,4-dichlorophenyl)-4-isopropyl-1H-pyrazol-3-yl)-5-(1-(4-chlorophenyl)cyclobutyl)-1,3,4-oxadiazole]
60.2	Cc1c(-c2nnc(C3(C(C)O)CC3)o2)nn(-c2ccc(Cl)cc2Cl)c1-c1ccc(Cl)cc1 (centres unmarked) [Example 288, 1-(1-(5-(5-(4-chlorophenyl)-1-(2,4-dichlorophenyl)-4-methyl-1H-pyrazol-3-yl)-1,3,4-oxadiazol-2-yl)cyclopropyl)ethanol]
62.1	CCCn1nnc(-c2nn(-c3ccc(Cl)cc3Cl)c(-c3ccc(Cl)cc3)c2C)n1 [Example 566, 5-(5-(4-Chlorophenyl)-1-(2,4-dichlorophenyl)-4-methyl-1H-pyrazol-3-yl)-2-propyl-2H-tetrazole]
11	Cc1c(-c2nnc(C3(c4ccccc4)CC3)o2)nn(-c2ccc(Cl)cc2Cl)c1-c1ccc(Cl)cc1 [Example 71, 2-(5-(4-chlorophenyl)-1-(2,4-dichlorophenyl)-4-methyl-1H-pyrazol-3-yl)-5-(1-phenylcyclopropyl)-1,3,4-oxadiazole]
18.1	Cc1c(-c2nnc(C3CCCC3)s2)nn(-c2ccc(Cl)cc2Cl)c1-c1ccc(Br)cc1 [Example 366, 2-(5-(4-Bromophenyl)-1-(2,4-dichlorophenyl)-4-methyl-1H-pyrazol-3-yl)-5-cyclopentyl-1,3,4-thiadiazole]
20.7	CC(=O)SCc1c(-c2nnc(C(C)(C)C)o2)nn(-c2ccc(Cl)cc2Cl)c1-c1ccc(Cl)cc1 [Example 308, S-(3-(5-tert-butyl-1,3,4-oxadiazol-2-yl)-5-(4-chlorophenyl)-1-(2,4-dichlorophenyl)-1H-pyrazol-4-yl)methyl ethanethioate]
8.14	Cc1c(-c2nnc(C3(c4ccc(Cl)cc4Cl)CC3)o2)nn(-c2ccc(Cl)cc2Cl)c1-c1ccc(Cl)cc1 [Example 130, 2-(5-(4-chlorophenyl)-1-(2,4-dichlorophenyl)-4-methyl-1H-pyrazol-3-yl)-5-(1-(2,4-dichlorophenyl)cyclopropyl)-1,3,4-oxadiazole]
70.3	Clc1ccc(-c2c(Br)c(-c3nnc(C4CCC4)s3)nn2-c2ccc(Cl)cc2Cl)cc1 [Example 543, 2-(4-bromo-5-(4-chlorophenyl)-1-(2,4-dichlorophenyl)-1H-pyrazol-3-yl)-5-cyclobutyl-1,3,4-thiadiazole]
85.3	Cc1c(-c2nnc(C3CC=CCC3)s2)nn(-c2ccc(Cl)cc2Cl)c1-c1ccc(Cl)cc1 (centres unmarked) [Example 383, 2-(5-(4-chlorophenyl)-1-(2,4-dichlorophenyl)-4-methyl-1H-pyrazol-3-yl)-5-(cyclohex-3-enyl)-1,3,4-thiadiazole]
3.42	Clc1ccc(-c2c(Cn3cncn3)c(-c3nnc(C4CCC4)o3)nn2-c2ccc(Cl)cc2Cl)cc1 [Example 315, 2-(4-((1H-1,2,4-triazol-1-yl)methyl)-5-(4-chlorophenyl)-1-(2,4-dichlorophenyl)-1H-pyrazol-3-yl)-5-cyclobutyl-1,3,4-oxadiazole]
93.8	Cc1c(-c2nnn(Cc3ccco3)n2)nn(-c2ccc(Cl)cc2Cl)c1-c1ccc(Cl)cc1 [Example 594, 5-(5-(4-Chlorophenyl)-1-(2,4-dichlorophenyl)-4-methyl-1H-pyrazol-3-yl)-2-(furan-2-ylmethyl)-2H-tetrazole]
96.6	Cc1c(-c2nnc(-c3cccs3)o2)nn(-c2ccc(Cl)cc2Cl)c1-c1ccc(Cl)cc1 [Example 11, 2-(5-(4-chlorophenyl)-1-(2,4-dichlorophenyl)-4-methyl-1H-pyrazol-3-yl)-5-(thiophen-2-yl)-1,3,4-oxadiazole]
63.3	Cc1c(-c2nnc(-c3cccs3)s2)nn(-c2ccc(Cl)cc2Cl)c1-c1ccc(Cl)cc1 [Example 351, 2-(5-(4-chlorophenyl)-1-(2,4-dichlorophenyl)-4-methyl-1H-pyrazol-3-yl)-5-(thiophen-2-yl)-1,3,4-thiadiazole]
12	CC(C)(C)c1nnc(-c2nn(-c3ccc(Cl)cc3Cl)c(-c3ccc(Br)cc3)c2Cn2cnnn2)o1 [Example 303, 2-(4-((1H-tetrazol-1-yl)methyl)-5-(4-bromophenyl)-1-(2,4-dichlorophenyl)-1H-pyrazol-3-yl)-5-tert-butyl-1,3,4-oxadiazole]

Each compound was assayed on DIO mice (assay: Chronic effects in DIO mice (body weight change, oral administration for 14 days)). Details: DIO mice (male C57BL/6J), 10 mg/kg, FIG. 1.
Format: in vivo
Description: Male C57BL/6J mice weighing over 38 g were housed 1 per cage on a 12-/12-h light/dark cycle, had free access to food (rodent sterilizable diet) and water, and were experimentally native before testing. Mice were allowed at least 7 days to habituate to the experimental room prior to testing, and testing was conducted during the light period. Mice were maintained and experiments were conducted in accordance with the Institutional Animal Care.
By oral administration, animals received at a volume of 10 ml/kg for 14 days. All control animals received 10% DMSO dissolved in deionized water.
The vehicles 10% DMSO treated group were comprised of 5 mice in oral test. There were 6 mice in each of the other experimental groups (n=6 in each group). By oral administration, the losing weight was checked everyday for the drug treated group and the control group.

Compound	Body weight change from day 0
CCc1c(-c2nnc(C3(C(F)(F)F)CC3)o2)nn(-c2ccc(Cl)cc2Cl)c1-c1ccc(Cl)cc1 [Example 155, 2-(5-(4-chlorophenyl)-1-(2,4-dichlorophenyl)-4-ethyl-1H-pyrazol-3-yl)-5-(1-(trifluoromethyl)cyclopropyl)-1,3,4-oxadiazole]	observed on all days
Cc1c(-c2nnc(C3(C(F)(F)F)CC3)o2)nn(-c2ccc(Cl)cc2Cl)c1-c1ccc(Cl)cc1 [Example 132, 2-(5-(4-chlorophenyl)-1-(2,4-dichlorophenyl)-4-methyl-1H-pyrazol-3-yl)-5-(1-(trifluoromethyl)cyclopropyl)-1,3,4-oxadiazole]	observed on all days
Cc1c(C(=O)NN2CCCCC2)nn(-c2ccc(Cl)cc2Cl)c1-c1ccc(Cl)cc1 [rimonabant, reference compound]	observed on all days
CC(C)(C)c1nnc(-c2nn(-c3ccc(Cl)cc3Cl)c(-c3ccc(Cl)cc3)c2Cn2cncn2)s1 [Example 502, 2-(4-((1H-1,2,4-triazol-1-yl)methyl)-5-(4-chlorophenyl)-1-(2,4-dichlorophenyl)-1H-pyrazol-3-yl)-5-tert-butyl-1,3,4-thiadiazole]	observed on all days
